The text below walks through data of patent US20240327364A1, “THERAPEUTIC TARGETING OF GPR68 TO INDUCE FERROPTOSIS” (University Of Maryland, Baltimore, priority 2023, published 2024).

One experiment deals with T1, AAK1 (Homo sapiens, UniProt Q2M2I8).
T1 construct: purchased DiscoveRx
In words: KinomeScan. In kind it is binding. The conditions noted are these: read-out: % Control.

The target of experiment [1] is T2, ABL1(H396P)-phosphorylated (Homo sapiens, UniProt P00519, H396P).
T2 construct: purchased DiscoveRx
The experiment in a line: KinomeScan. The conditions noted are these: read-out: % Control. In kind it is binding.

The target of a further experiment is T3, ACVR2A (Homo sapiens, UniProt P27037).
T3 construct: purchased DiscoveRx
In words: KinomeScan. The class given is binding. The conditions noted are these: read-out: % Control.

The target in a further experiment is T4, AKT1 (Homo sapiens, UniProt P31749).
T4 construct: purchased DiscoveRx (Fremont, CA)
The experiment in a line: KinomeScan. The conditions noted are these: read-out: % Control. The class given is binding.

Another experiment has as its target T5, AXL (Homo sapiens, UniProt P30530).
T5 construct: purchased DiscoveRx (Fremont, CA)
The experiment in a line: KinomeScan. The class given is binding. The following applies: read-out: % Control.

The target of another experiment is T6, CAMK1 (Homo sapiens, UniProt Q14012).
T6 construct: purchased DiscoveRx (KinomeScan service)
In words: KinomeScan. The class given is binding. The following applies: read-out: % Control.

A further experiment deals with T7, DDR2 (Homo sapiens, UniProt Q16832).
T7 construct: purchased DiscoveRx (Fremont, CA), KinomeScan service
The experiment in a line: KinomeScan. The class given is binding. The conditions noted are these: read-out: % Control.

For another experiment, the target named is T8, DLK (Homo sapiens, UniProt Q12852).
T8 construct: purchased DiscoveRx (Fremont, CA), KinomeScan service
In words: KinomeScan. The class given is binding. The conditions noted are these: read-out: % Control.

The next experiment has as its target T9, DMPK (Homo sapiens, UniProt Q09013).
T9 construct: purchased DiscoveRx (Fremont, CA), KinomeScan service
The experiment in a line: KinomeScan. The class given is binding. The following applies: read-out: % Control.

For another experiment, the target named is T10, EGFR(L858R, T790M) (Homo sapiens, UniProt P00533, L858R/T790M).
T10 construct: purchased DiscoveRx (Fremont, CA), KinomeScan service
The experiment in a line: KinomeScan. In kind it is binding. The conditions noted are these: read-out: % Control.

The target of another experiment is T11, ERN1 (Homo sapiens, UniProt O75460).
T11 construct: purchased DiscoveRx (Fremont, CA)
In words: KinomeScan. The class given is binding. The following applies: read-out: % Control.

The target in the next experiment is T12, FGFR3(G697C) (Homo sapiens, UniProt P22607, G697C).
T12 construct: purchased DiscoveRx (Fremont, CA)
In words: KinomeScan. The following applies: read-out: % Control. In kind it is binding.

Another experiment addresses T13, FLT3(N841I) (Homo sapiens, UniProt P36888, N841I).
T13 construct: purchased DiscoveRx (Fremont, CA)
In words: KinomeScan. In kind it is binding. The following applies: read-out: % Control.

The target of experiment [2] is T14, JAK1(JH2domain-pseudokinase) (Homo sapiens, UniProt P23458).
T14 construct: JAK1(JH2domain-pseudokinase); purchased DiscoveRx (Fremont, CA)
The experiment in a line: KinomeScan. The following applies: read-out: % Control. The class given is binding.

For another experiment, the target named is T15, INK2 (Homo sapiens, UniProt P45984).
T15 construct: purchased DiscoveRx
In words: KinomeScan. In kind it is binding. The conditions noted are these: read-out: % Control.

A further experiment deals with T16, MEK2 (Homo sapiens, UniProt P36507).
T16 construct: purchased DiscoveRx (Fremont, CA)
The experiment in a line: KinomeScan. In kind it is binding. The conditions noted are these: read-out: % Control.

In a further experiment the target is T17, MRCKA (Homo sapiens, UniProt Q5VT25).
T17 construct: purchased DiscoveRx
The experiment in a line: KinomeScan. In kind it is binding. The conditions noted are these: read-out: % Control.

The next experiment deals with T18, NEK11 (Homo sapiens, UniProt Q8NG66).
T18 construct: purchased DiscoveRx
In words: KinomeScan. In kind it is binding. The conditions noted are these: read-out: % Control.

The next experiment concerns the target T19, PIK3CA(M1043I) (Homo sapiens, UniProt P42336, M1043I).
T19 construct: purchased DiscoveRx (Fremont, CA)
In words: KinomeScan. In kind it is binding. The following applies: read-out: % Control.

A further experiment has as its target T20, PIK4CB (Homo sapiens, UniProt Q9UBF8).
T20 construct: purchased DiscoveRx (Fremont, CA)
In words: KinomeScan. The conditions noted are these: read-out: % Control. In kind it is binding.

The next experiment has as its target T21, PIM3 (Homo sapiens, UniProt Q86V86).
T21 construct: purchased DiscoveRx (Fremont, CA)
The experiment in a line: KinomeScan. The class given is binding. The conditions noted are these: read-out: % Control.

A further experiment addresses T22, PIP5K2B (Homo sapiens, UniProt P78356).
T22 construct: purchased DiscoveRx (Fremont, CA)
In words: KinomeScan. The following applies: read-out: % Control. The class given is binding.

A further experiment deals with T23, PRKD3 (Homo sapiens, UniProt O94806).
T23 construct: purchased DiscoveRx (Fremont, CA)
The experiment in a line: KinomeScan. The conditions noted are these: read-out: % Control. The class given is binding.

Another experiment concerns the target T24, SLK (Homo sapiens, UniProt Q9H2G2).
T24 construct: purchased DiscoveRx (Fremont, CA)
In words: KinomeScan. The conditions noted are these: read-out: % Control. The class given is binding.

Another experiment addresses T25, SNRK (Homo sapiens, UniProt Q9NRH2).
T25 construct: purchased DiscoveRx (Fremont, CA)
In words: KinomeScan. In kind it is binding. The conditions noted are these: read-out: % Control.

In a further experiment the target is T26, SYK (Homo sapiens, UniProt P43405).
T26 construct: purchased DiscoveRx (Fremont, CA)
The experiment in a line: KinomeScan. The class given is binding. The following applies: read-out: % Control.

For the next experiment, the target named is T27, TLK1 (Homo sapiens, UniProt Q9UKI8).
T27 construct: purchased DiscoveRx (Fremont, CA)
The experiment in a line: KinomeScan. In kind it is binding. The following applies: read-out: % Control.

The target of a further experiment is T28, TLK2 (Homo sapiens, UniProt Q86UE8).
T28 construct: purchased DiscoveRx (Fremont, CA)
The experiment in a line: KinomeScan. In kind it is binding. The conditions noted are these: read-out: % Control.

For a further experiment, the target named is T29, TRKC (Homo sapiens, UniProt Q16288).
T29 construct: purchased DiscoveRx (Fremont, CA)
In words: KinomeScan. The class given is binding. The following applies: read-out: % Control.

The next experiment deals with T30, ULK3 (Homo sapiens, UniProt Q6PHR2).
T30 construct: purchased DiscoveRx
The experiment in a line: KinomeScan. In kind it is binding. The conditions noted are these: read-out: % Control.

In the next experiment the target is T31, WEE1 (Homo sapiens, UniProt P30291).
T31 construct: purchased DiscoveRx
In words: KinomeScan. The following applies: read-out: % Control. In kind it is binding.

For a further experiment, the target named is T32, BLY1 (Homo sapiens, UniProt Q15722).
T32 construct: host or cells: Chem-1 cells with promiscuous Gα15
In words: GPCR Profiler. In kind it is cell-based.

The target of the next experiment is T33, D2 (Homo sapiens, UniProt P14416).
T33 construct: host or cells: Chem-1 cells with Gα15
The experiment in a line: GPCR Profiler. In kind it is cell-based.

A further experiment deals with Lpa1 (Homo sapiens, UniProt Q92633). In words: GPCR Profiler. The class given is cell-based.
The target in a further experiment is T34, MCHR1 (Homo sapiens, UniProt Q99705).
T34 construct: host or cells: Chem-1 cells with promiscuous Gα15
In words: GPCR Profiler. In kind it is cell-based. The following applies: 12.5 uM.

Another experiment has as its target T35, Motilin (Homo sapiens, UniProt O43193).
T35 construct: host or cells: Chem-1 cells expressing Gα15
The experiment in a line: GPCR Profiler. In kind it is cell-based.

The next experiment deals with panel of 442 kinases. In words: KinomeScan panel (summary). The following applies: 10 uM. The class given is binding.
The next experiment concerns the target GPR68 (Homo sapiens, UniProt Q15743). The experiment in a line: Acid-induced calcium response, GPR68-transfected HEK293 cells. In kind it is cell-based.

Lpa1, sequence (Q92633 whole entry, species assumed): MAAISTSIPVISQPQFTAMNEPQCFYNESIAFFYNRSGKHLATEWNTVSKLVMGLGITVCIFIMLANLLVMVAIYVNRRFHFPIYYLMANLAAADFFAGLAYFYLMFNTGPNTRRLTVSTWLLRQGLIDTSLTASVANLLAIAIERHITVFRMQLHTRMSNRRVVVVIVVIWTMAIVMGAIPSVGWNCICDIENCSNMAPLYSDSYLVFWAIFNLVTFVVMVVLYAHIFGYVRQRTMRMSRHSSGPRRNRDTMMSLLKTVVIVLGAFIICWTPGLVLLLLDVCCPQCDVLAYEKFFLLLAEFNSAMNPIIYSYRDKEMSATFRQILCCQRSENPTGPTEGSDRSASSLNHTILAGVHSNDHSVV
T33 sequence (P14416 whole entry): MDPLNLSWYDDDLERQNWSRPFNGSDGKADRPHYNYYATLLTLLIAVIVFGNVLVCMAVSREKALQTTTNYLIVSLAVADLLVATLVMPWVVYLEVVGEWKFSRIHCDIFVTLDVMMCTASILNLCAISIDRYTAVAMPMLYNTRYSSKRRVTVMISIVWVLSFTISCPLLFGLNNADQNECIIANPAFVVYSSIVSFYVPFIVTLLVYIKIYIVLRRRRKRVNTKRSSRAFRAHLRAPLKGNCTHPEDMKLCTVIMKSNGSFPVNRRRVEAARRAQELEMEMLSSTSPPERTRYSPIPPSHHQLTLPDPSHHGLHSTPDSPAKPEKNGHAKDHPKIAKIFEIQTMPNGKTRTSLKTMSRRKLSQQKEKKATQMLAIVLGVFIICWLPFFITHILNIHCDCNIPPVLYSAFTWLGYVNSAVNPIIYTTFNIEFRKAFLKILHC
T35 sequence (O43193 whole entry): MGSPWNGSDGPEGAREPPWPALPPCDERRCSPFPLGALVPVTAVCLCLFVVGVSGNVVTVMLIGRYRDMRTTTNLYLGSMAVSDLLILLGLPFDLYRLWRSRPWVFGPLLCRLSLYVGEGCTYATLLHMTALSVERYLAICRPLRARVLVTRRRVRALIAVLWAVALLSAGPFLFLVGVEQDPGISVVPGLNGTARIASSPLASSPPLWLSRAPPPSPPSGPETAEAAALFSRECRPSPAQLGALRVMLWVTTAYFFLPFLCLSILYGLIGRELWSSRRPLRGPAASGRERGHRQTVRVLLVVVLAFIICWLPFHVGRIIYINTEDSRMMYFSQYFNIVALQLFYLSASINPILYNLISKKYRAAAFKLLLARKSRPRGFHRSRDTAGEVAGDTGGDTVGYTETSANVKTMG
T32 sequence (Q15722 whole entry): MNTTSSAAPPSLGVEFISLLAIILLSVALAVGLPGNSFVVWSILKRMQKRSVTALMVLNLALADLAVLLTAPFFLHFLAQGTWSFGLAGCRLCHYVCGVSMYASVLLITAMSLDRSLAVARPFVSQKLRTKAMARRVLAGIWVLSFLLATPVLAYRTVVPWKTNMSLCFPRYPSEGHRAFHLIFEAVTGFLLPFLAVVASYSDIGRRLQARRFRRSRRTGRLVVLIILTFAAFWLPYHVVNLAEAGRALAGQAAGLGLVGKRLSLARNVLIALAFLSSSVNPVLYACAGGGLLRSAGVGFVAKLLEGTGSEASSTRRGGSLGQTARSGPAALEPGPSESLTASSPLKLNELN
T5 sequence (P30530 26-894): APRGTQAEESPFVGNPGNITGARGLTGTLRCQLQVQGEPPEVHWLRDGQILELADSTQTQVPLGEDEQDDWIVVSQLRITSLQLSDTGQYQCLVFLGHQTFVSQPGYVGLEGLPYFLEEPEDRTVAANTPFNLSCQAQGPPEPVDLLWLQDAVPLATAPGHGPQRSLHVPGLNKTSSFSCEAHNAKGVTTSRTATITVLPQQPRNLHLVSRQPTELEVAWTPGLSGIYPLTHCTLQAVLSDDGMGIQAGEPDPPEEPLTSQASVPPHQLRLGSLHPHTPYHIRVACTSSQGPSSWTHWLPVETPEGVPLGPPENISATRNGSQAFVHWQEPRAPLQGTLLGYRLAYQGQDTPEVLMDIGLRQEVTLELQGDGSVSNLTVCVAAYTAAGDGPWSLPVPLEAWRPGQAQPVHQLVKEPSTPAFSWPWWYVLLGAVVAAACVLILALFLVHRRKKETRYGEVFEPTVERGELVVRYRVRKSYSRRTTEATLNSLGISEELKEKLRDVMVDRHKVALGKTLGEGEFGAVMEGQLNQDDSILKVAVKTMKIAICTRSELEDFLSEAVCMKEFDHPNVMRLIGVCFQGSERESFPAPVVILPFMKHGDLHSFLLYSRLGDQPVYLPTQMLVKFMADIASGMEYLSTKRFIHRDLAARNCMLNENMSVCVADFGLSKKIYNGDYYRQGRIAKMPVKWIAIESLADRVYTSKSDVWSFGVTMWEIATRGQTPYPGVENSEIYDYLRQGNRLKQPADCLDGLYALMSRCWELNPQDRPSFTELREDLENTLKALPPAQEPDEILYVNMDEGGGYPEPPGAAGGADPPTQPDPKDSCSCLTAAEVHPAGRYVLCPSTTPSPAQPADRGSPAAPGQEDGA
T9 sequence (Q09013 whole entry): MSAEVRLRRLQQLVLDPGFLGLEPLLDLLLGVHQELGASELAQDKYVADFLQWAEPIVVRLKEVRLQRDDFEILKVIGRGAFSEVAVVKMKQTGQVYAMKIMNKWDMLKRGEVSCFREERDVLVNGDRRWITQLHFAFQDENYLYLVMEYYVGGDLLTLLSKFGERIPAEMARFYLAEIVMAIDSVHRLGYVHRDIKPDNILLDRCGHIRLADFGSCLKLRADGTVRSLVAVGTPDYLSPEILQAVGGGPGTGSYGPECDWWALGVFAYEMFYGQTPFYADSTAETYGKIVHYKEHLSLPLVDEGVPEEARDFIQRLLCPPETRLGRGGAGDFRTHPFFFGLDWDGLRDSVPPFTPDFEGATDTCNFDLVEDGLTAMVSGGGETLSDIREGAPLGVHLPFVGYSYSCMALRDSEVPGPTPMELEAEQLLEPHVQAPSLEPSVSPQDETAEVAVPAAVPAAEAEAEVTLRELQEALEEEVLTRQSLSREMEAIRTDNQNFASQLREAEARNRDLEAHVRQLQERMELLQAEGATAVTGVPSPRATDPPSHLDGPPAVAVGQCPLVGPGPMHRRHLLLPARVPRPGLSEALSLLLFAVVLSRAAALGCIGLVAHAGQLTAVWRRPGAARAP
T27 sequence (Q9UKI8 whole entry): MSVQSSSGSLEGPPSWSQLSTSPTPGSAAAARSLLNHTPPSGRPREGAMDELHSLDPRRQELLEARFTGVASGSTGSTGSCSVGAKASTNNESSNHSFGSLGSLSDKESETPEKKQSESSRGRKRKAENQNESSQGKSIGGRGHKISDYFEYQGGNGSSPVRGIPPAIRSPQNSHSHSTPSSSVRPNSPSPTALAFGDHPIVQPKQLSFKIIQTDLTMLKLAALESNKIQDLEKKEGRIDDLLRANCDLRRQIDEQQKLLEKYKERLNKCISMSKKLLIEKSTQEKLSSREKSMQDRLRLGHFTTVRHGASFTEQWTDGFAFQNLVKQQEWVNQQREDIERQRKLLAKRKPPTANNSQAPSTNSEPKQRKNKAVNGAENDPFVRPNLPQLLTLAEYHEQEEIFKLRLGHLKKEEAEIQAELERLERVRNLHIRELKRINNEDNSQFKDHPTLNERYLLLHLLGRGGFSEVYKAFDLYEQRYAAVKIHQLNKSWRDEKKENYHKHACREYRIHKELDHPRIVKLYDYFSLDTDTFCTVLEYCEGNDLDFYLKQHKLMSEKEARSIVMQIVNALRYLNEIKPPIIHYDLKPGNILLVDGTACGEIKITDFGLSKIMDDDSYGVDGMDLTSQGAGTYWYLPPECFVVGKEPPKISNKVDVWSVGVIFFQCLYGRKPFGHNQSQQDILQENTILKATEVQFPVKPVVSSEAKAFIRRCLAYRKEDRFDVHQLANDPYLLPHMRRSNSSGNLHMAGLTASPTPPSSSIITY
T14 sequence (P23458 583-855 limits assumed): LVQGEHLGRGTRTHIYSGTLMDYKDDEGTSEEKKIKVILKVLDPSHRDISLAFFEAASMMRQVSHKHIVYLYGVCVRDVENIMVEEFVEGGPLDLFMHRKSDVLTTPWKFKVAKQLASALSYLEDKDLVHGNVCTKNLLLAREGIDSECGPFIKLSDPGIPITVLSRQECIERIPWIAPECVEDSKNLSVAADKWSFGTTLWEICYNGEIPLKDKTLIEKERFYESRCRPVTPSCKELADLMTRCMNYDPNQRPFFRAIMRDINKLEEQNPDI
T30 sequence (Q6PHR2 whole entry): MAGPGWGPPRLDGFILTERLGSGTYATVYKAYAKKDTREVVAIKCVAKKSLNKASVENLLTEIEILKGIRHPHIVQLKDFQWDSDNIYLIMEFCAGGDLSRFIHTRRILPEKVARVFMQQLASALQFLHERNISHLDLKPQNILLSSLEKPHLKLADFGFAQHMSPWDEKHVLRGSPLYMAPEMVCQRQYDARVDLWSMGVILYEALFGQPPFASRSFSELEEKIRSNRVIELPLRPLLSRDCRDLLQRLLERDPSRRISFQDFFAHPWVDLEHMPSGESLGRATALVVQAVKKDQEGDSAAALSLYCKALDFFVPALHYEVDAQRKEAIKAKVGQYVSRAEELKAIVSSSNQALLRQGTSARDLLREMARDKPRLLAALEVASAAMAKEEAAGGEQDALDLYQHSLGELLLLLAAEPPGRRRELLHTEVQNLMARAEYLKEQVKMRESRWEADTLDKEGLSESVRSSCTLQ
GPR68, sequence (Q15743 whole entry): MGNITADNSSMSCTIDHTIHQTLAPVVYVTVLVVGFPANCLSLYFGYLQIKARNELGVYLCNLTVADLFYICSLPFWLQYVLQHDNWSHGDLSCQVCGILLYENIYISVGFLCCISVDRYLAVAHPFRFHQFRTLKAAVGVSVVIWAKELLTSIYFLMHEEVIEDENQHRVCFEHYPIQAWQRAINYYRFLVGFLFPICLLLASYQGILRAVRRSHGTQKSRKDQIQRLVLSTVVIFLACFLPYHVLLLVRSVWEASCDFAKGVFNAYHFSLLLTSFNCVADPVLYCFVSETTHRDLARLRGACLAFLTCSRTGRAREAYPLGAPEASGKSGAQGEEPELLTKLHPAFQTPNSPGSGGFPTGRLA

Take `CCc1ccc2c(c1)C1(NN=C(c3cccc4ccccc34)S1)C(=O)N2` (stereo not drawn) [OGM1, 5-ethyl-5′-naphthalen-1-ylspiro[1H-indole-3,2′-3H-1,3,4-thiadiazole]-2-one]: the remaining binding at 10 µM amounted to 100% at AAK1; 83% in experiment [1]; 100% on ACVR2A; 78% at AKT1; 100% on AXL; 50% at CAMK1. Moreover, the remaining binding at 10 µM was 86% at DDR2; 40% at DLK; 86% at DMPK; 89% on EGFR(L858R, T790M); 72% at ERN1; 99% at FGFR3(G697C). Besides, the remaining binding at 10 µM is 91% on FLT3(N841I); 100% in experiment [2]; 83% at INK2; 94% on MEK2; 78% at MRCKA; 88% on NEK11. The remaining binding at 10 µM was determined as 59% at PIK3CA(M1043I); 71% on PIK4CB; 73% at PIM3; 100% at PIP5K2B; 100% on PRKD3; 90% at SLK. Moreover, the remaining binding at 10 µM worked out at 100% on SNRK; 98% at SYK; 53% on TLK1; 71% at TLK2; 62% on TRKC; 100% at ULK3. For the same compound, the remaining binding at 10 µM at WEE1 came out at 100%. The Antagonism at BLY1 (10 uM) was −5.5; on D2 (10 uM), 11.4; on Lpa1 (10 uM), 89.5; on Motilin (10 uM), −0.7. Also, the Agonism on BLY1 (12.5 uM) is on record as 0.3; at D2 (12.5 uM) it was −0.5; on Lpa1 (12.5 uM), 0.5; at MCHR1, −0.4; at Motilin (12.5 uM), 1. Besides, the “interaction with kinase domains” value in the experiment on panel of 442 kinases is “did not physically interact with the kinase domain of any kinase”.

Consider `CCc1ccc2c(c1)C1(NN=C(c3ccccc3)S1)C(=O)N2` (stereo not drawn) [OGM2], for which the “calcium response to extracellular acidification” value at GPR68 is “inhibited”.
